Measurements taken from ChEMBL document CHEMBL1949520, “Synthesis of terphenyl benzimidazoles as tubulin polymerization inhibitors” (2012).

What was measured:
Type in all cases: functional
[1] = test system: A549; assay: Growth inhibition of human A549 cells by SRB assay
[2] = Growth inhibition of human Gurav cells by SRB assay
[3] = test system: HOP-62; assay: Growth inhibition of human HOP62 cells by SRB assay
[4] = test system: MCF7; assay: Growth inhibition of human MCF7 cells by SRB assay
[5] = test system: ZR-75-1; assay: Growth inhibition of human ZR-75-1 cells by SRB assay
[6] = test system: A2780; assay: Growth inhibition of human A2780 cells by SRB assay
[7] = Growth inhibition of human DWD cells by SRB assay
[8] = test system: KB; assay: Growth inhibition of human KB cells by SRB assay
[9] = test system: COLO 205; assay: Growth inhibition of human COLO205 cells by SRB assay
[10] = test system: PC-3; assay: Growth inhibition of human PC3 cells by SRB assay
[11] = test system: SiHa; assay: Growth inhibition of human SiHa cells by SRB assay

| Structure (SMILES) | GI50 [1] [µM] | GI50 [2] [µM] | GI50 [3] [µM] | GI50 [4] [µM] | GI50 [5] [µM] | GI50 [6] [µM] | GI50 [7] [µM] | GI50 [8] [µM] | GI50 [9] [µM] | GI50 [10] [µM] | GI50 [11] [µM] |
| --- | --- | --- | --- | --- | --- | --- | --- | --- | --- | --- | --- |
| COc1ccc(-c2ccc(-c3ccc(-c4nc5cc(C)ccc5[nH]4)cc3)cc2)cc1OC | 2.1 | 1.31 | 2.12 | 0.19 | 3.1 | 2.13 | 1.72 | 2.19 | 2.32 | 2.56 | 3.51 |
| FC(F)(F)c1ccc(-c2ccc(-c3ccc(-c4nc5ccccc5[nH]4)cc3)cc2)cc1 | 36.6 | 39.1 | 100 | 41.4 | 48.3 | 100 | 100 | 47.2 | 33.9 | 45.2 | 100 |
| Cc1ccc2[nH]c(-c3ccc(-c4ccc(-c5cccc(Cl)c5)cc4)cc3)nc2c1 | 2.8 | 2.12 | 2.74 | 1.21 | 3.45 | 2.8 | 2.51 | 2.26 | 2.78 | 2.67 | 3.6 |
| COc1ccc(-c2ccc(-c3ccc(-c4nc5cc(C)ccc5[nH]4)cc3)cc2)cc1 | 6.33 | 9.27 | 36.3 | 3.11 | 41.1 | 2.11 | 100 | 28.3 | 100 | 100 | 21.2 |
| COc1cc(-c2ccc(-c3ccc(-c4nc5ccccc5[nH]4)cc3)cc2)cc(OC)c1OC | 2.11 | 7.1 | 9.43 | 6.38 | 9.71 | 9.21 | 8.01 | 2.98 | 8.32 | 9.72 | 4.98 |
| Oc1ccc(-c2ccc(-c3ccc(-c4nc5ccccc5[nH]4)cc3)cc2)cc1 | 33.1 | 100 | 47.2 | 30.5 | 100 | 36 | 46.3 | 41 | 100 | 47 | 33.3 |
| Oc1cccc2[nH]c(-c3ccc(-c4ccc(-c5cccc(Cl)c5)cc4)cc3)nc12 | 2.4 | 2.31 | 2.26 | 3.42 | 2.41 | 2.8 | 2.1 | 2.28 | 8.6 | 2.56 | 8.4 |
| Cc1ccc2[nH]c(-c3ccc(-c4ccc(-c5ccc(N(C)C)cc5)cc4)cc3)nc2c1 | 3.51 | 6.24 | 4.23 | 3.13 | 7.2 | 2.21 | 3.23 | 6.24 | 9.21 | 8.12 | 7.11 |
| FC(F)(F)Oc1ccc(-c2ccc(-c3ccc(-c4nc5ccccc5[nH]4)cc3)cc2)cc1 | 38 | 100 | 100 | 38.4 | 100 | 100 | 100 | 39.1 | 100 | 100 | 38.4 |
| Cc1ccc2[nH]c(-c3ccc(-c4ccc(-c5ccccc5)cc4)cc3)nc2c1 | 3.63 | 3.31 | 39.3 | 31.6 | 27.4 | 41.2 | 28.3 | 32.1 | 2.56 | 100 | 35.2 |
| COc1ccc(-c2ccc(-c3ccc(-c4nc5c(O)cccc5[nH]4)cc3)cc2)cc1OC | 1.31 | 1.11 | 2.21 | 0.19 | 2.11 | 2.71 | 1.4 | 2.71 | 1.32 | 1.24 | 1.11 |
| Cc1ccc2[nH]c(-c3ccc(-c4ccc(-c5ccc(O)cc5)cc4)cc3)nc2c1 | 3.52 | 11.3 | 41.2 | 12.1 | 18.2 | 31.2 | 21.2 | 21.2 | 100 | 30 | 33.5 |
| Oc1cccc2[nH]c(-c3ccc(-c4ccc(-c5ccc(F)cc5)cc4)cc3)nc12 | 0.17 | 2.86 | 8.31 | 3.01 | 6.32 | 41.2 | 22.2 | 6.92 | 1.22 | 15.3 | 9.1 |
| Clc1cccc(-c2ccc(-c3ccc(-c4nc5ccccc5[nH]4)cc3)cc2)c1 | 31.1 | 2.19 | 100 | 36.3 | 41.2 | 31.1 | 100 | 32.3 | 100 | 33.7 | 100 |
| COc1ccc(-c2ccc(-c3ccc(-c4nc5ccccc5[nH]4)cc3)cc2)cc1 | 38.1 | 38.1 | 100 | 33.3 | 35.1 | 100 | 100 | 47.2 | 45.2 | 100 | 2.76 |
| CN(C)c1ccc(-c2ccc(-c3ccc(-c4nc5c(O)cccc5[nH]4)cc3)cc2)cc1 | 7.1 | 8.21 | 8.25 | 2.31 | 4.1 | 3.01 | 9.21 | 4.2 | 6.32 | 8.42 | 6.24 |
| CN(C)c1ccc(-c2ccc(-c3ccc(-c4nc5ccccc5[nH]4)cc3)cc2)cc1 | 30.1 | 100 | 100 | 41.2 | 100 | 100 | 100 | 39.3 | 100 | 100 | 100 |
| Fc1ccc(-c2ccc(-c3ccc(-c4nc5ccccc5[nH]4)cc3)cc2)cc1 | 33.2 | 100 | 39.3 | 36.2 | 100 | 48.2 | 35.6 | 41.3 | 100 | 41.2 | 29.7 |
| Oc1cccc2[nH]c(-c3ccc(-c4ccc(-c5ccccc5)cc4)cc3)nc12 | 8.32 | 1.11 | 9.04 | 2.2 | 35.6 | 41 | 9.68 | 4.01 | 1.21 | 1.24 | 9.71 |
| c1ccc(-c2ccc(-c3ccc(-c4nc5ccccc5[nH]4)cc3)cc2)cc1 | 41.2 | 100 | 100 | 39.2 | 100 | 32.1 | 100 | 39.7 | 100 | 41.2 | 100 |
| COc1cccc2c1C(=O)c1c(O)c3c(c(O)c1C2=O)C[C@@](O)(C(=O)CO)C[C@@H]3O[C@H]1C[C@H](N)[C@H](O)[C@H](C)O1 [DOXORUBICIN] |  | 0.17 | 0.14 | 0.17 |  | 0.16 | 0.1 | 0.17 | 0.14 |  | 0.14 |
